Reference: publication PMC12064818, “A general assay platform to study protein pharmacology using ligand-dependent structural dynamics” (Nature Communications, 2025)
Values joined by “and” are separate entries in the source; they are usually repeats but may differ in a detail not shown here. Identical values can stand only once. Like-named read-outs stand apart in the source and are kept apart here.

Assays:
NLuc = biological target: T1, NLuc (Oplophorus gracilirostris, UniProt Q9GV45, A31E/A60N/A81I/F95D/I117V/K70R/L54V/L99Q/M102K/N193R/P142E/Q151K/Q38R/Q45L/V71I/Y165I); assay type: biochemical; conditions: for Standard assay statistics Ave RLU / Standard assay statistics S:B / Standard assay statistics S:N / Standard assay statistics Z’ / SDR assay statistics Ave RLU / SDR assay statistics S:B / SDR assay statistics S:N / SDR assay statistics Z’: 32.8 µM ligand; for SDR assay statistics Ave RLU / SDR assay statistics S:B / SDR assay statistics S:N / SDR assay statistics Z’: Standard functional and SDR assays are the same
T1 construct: His tag (inferred from IMAC purification); made in house; host or cells: E. coli
Method in brief: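 Luminescence was read 10 min after Nano-Glo reagent addition. Enzyme was 1 nM NLuc in PBS/0.05% IGEPAL buffer, with or without ATP.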

P. pyralis FLuc = P. pyralis FLuc (Photinus pyralis, UniProt P08659); assay: FLuc enzymatic luminescence assay, P. pyralis FLuc; assay type: biochemical; conditions: FLuc enzymatic assay
Method in brief: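 Runs with and without 10 µM ATP: compounds were pre-incubated with FLuc (1–10 nM, PBS pH 7.4) at ambient temperature, light-protected, for 30–60 min. Luminescence was imaged 5 min after adding 10 µM D-luciferin (final). Inhibition was scaled between DMSO neutral and no-enzyme controls.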

[1] = biological target: E. coli Lig-N-HiBiT (DNA ligase) (Escherichia coli, UniProt P15042); assay: biochemical
[2] = biological target: T2, T7 Lig-C-HiBiT (DNA ligase) (Escherichia phage T7, UniProt P00969); assay: SDR assay (aqueous ligand dispense), T7 Lig-C-HiBiT; conditions: for SDR assay data: 1 nM T7 Lig-C-HiBiT; for SDR assay data / SDR response: Log [ATP]; for SDR response: replicates
T2 sequence (P00969 2-359): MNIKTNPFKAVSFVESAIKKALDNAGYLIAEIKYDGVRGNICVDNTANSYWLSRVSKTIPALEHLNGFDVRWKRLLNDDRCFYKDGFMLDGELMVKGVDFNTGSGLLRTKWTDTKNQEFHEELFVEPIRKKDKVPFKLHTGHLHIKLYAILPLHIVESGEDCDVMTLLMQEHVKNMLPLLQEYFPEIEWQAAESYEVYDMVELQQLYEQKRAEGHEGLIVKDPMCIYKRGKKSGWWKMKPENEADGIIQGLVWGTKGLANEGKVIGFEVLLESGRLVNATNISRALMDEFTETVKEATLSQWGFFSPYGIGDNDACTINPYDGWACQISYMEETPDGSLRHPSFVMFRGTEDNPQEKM

[3] = T7 Lig-C-HiBiT (1 nM), ligand 100 µM

T1 sequence (Q9GV45 other isoform, or with tags, fused parts or gaps with the stated changes): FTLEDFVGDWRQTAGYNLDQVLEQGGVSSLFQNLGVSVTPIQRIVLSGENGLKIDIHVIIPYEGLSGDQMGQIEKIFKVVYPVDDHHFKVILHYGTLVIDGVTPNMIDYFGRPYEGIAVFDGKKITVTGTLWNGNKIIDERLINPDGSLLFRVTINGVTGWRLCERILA
P. pyralis FLuc, sequence (P08659 whole entry): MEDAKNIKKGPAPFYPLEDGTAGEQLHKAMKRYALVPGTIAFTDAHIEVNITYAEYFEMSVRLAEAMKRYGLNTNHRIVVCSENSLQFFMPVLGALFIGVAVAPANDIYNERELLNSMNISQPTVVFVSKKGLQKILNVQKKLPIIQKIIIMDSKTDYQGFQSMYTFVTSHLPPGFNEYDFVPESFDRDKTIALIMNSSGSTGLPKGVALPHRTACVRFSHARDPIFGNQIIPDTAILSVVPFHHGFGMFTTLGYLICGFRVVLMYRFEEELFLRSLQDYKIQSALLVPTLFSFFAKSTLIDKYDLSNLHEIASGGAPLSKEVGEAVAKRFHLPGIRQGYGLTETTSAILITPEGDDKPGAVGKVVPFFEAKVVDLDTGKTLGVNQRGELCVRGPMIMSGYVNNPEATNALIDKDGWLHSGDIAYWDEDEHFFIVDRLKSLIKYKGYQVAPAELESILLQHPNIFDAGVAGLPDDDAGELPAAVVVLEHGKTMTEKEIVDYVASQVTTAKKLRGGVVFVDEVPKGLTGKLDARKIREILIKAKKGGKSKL
E. coli Lig-N-HiBiT (DNA ligase), sequence (P15042 2-671): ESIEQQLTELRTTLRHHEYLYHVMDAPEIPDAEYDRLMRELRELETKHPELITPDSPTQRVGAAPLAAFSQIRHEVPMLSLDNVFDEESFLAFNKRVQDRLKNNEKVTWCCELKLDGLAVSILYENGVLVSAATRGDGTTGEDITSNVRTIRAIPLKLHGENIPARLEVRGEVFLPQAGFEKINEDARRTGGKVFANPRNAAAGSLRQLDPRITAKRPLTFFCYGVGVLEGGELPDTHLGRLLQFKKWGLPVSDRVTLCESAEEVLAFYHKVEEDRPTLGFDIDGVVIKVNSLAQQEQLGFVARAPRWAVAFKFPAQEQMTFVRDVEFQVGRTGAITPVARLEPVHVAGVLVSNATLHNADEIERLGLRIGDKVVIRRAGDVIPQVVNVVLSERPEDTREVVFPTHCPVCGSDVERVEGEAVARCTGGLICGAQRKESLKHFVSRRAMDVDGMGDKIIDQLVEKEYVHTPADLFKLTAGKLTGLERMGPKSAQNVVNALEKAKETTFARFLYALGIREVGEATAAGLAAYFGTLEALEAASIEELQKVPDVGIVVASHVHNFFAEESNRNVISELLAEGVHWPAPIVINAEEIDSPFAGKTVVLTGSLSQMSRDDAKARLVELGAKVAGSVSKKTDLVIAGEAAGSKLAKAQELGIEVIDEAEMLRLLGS

SMILES: O=C(O)c1cccc(-c2noc(-c3ccccc3F)n2)c1 [PTC124, reference compound]
- Standard assay statistics Ave RLU (NLuc; NLuc (1 nM) + 10 mM ATP): 17397.2 RLU
- Standard assay statistics S:B (NLuc; NLuc (1 nM) + 10 mM ATP): 1.0
- Standard assay statistics S:N (NLuc; NLuc (1 nM) + 10 mM ATP): 0.0
- Standard assay statistics Z’ (NLuc; NLuc (1 nM) + 10 mM ATP): -163.485
- SDR assay statistics Ave RLU (NLuc; NLuc (1 nM) + 10 mM ATP): 17397.2 RLU
- SDR assay statistics S:B (NLuc; NLuc (1 nM) + 10 mM ATP): 1.0
- SDR assay statistics S:N (NLuc; NLuc (1 nM) + 10 mM ATP): 0.0
- SDR assay statistics Z’ (NLuc; NLuc (1 nM) + 10 mM ATP): -163.485
- Standard assay statistics Ave RLU (NLuc; NLuc (1 nM) No ATP): 20065.5 RLU
- Standard assay statistics S:B (NLuc; NLuc (1 nM) No ATP): 1.0
- Standard assay statistics S:N (NLuc; NLuc (1 nM) No ATP): 0.0
- Standard assay statistics Z’ (NLuc; NLuc (1 nM) No ATP): -167.215
- SDR assay statistics Ave RLU (NLuc; NLuc (1 nM) No ATP): 20065.5 RLU
- SDR assay statistics S:B (NLuc; NLuc (1 nM) No ATP): 1.0
- SDR assay statistics S:N (NLuc; NLuc (1 nM) No ATP): 0.0
- SDR assay statistics Z’ (NLuc; NLuc (1 nM) No ATP): -167.215

SMILES: CC(CNC(=O)C1CCN(C(=O)c2ncn3c2COC(c2ccccc2)C3)CC1)c1ccccc1 (stereo not drawn) [compound 00449795]
- Efficacy (%) FLuc E (P. pyralis FLuc; Clade S follow-up): -95.72%
- IC50 (P. pyralis FLuc; read-out: IC50 or SDR50 (mM) FLuc E): 0.00197 mM

SMILES: Nc1ncnc2c1ncn2[C@@H]1O[C@H](COP(=O)(O)OP(=O)(O)OP(=O)(O)O)[C@@H](O)[C@H]1O [ATP]
- effect on NLuc activity (in words) (NLuc; ±ATP): no effect on NLuc activity
- EC50 [1]: ≥ 100 µM
- EC50 [2]: ≥ 100 µM
- SDR assay data ([2]; M -2.85): 216.5 and 209.6 and 219.5
- SDR assay data ([2]; M -3.15): 141.4 and 163.1 and 159.6
- SDR assay data ([2]; M -3.45): 83.0 and 105.1 and 112.1
- SDR assay data ([2]; M -3.75): 54.1 and 71.7 and 73.7
- SDR assay data ([2]; M -4.35): 22.4 and 27.8 and 30.1
- SDR assay data ([2]; M -4.65): 18.5 and 22.1 and 22.3
- SDR assay data ([2]; M -4.95): 14.4 and 13.8
- SDR assay data ([2]; M -5.25): 9.3 and 8.9
- SDR assay data ([2]; M -5.55): 9.2 and 6.3
- SDR assay data ([2]; M -6.16): 7.3 and 4.5
- SDR assay data ([2]; M -6.46): 6.2 and 3.9 and 5.5
- SDR response ([2]; M -2.85): 216.5 and 209.6 and 219.5
- SDR response ([2]; M -3.15): 141.4 and 163.1 and 159.6
- SDR response ([2]; M -3.45): 83.0 and 105.1 and 112.1
- SDR response ([2]; M -3.75): 54.1 and 71.7 and 73.7
- SDR response ([2]; M -4.05): 18.5 and 46.9 and 44.7
- SDR response ([2]; M -4.35): 22.4 and 27.8 and 30.1
- SDR response ([2]; M -4.65): 18.5 and 22.1 and 22.3
- SDR response ([2]; M -4.95): 14.4 and 13.8
- SDR response ([2]; M -5.25): 9.3 and 8.9
- SDR response ([2]; M -5.55): 9.2 and 6.3
- SDR response ([2]; M -5.86): 6.9 and 3.3 and 6.8
- SDR response ([2]; M -6.16): 7.3 and 4.5
- SDR response ([2]; M -6.46): 6.2 and 3.9 and 5.5
- SDR response ([2]; M -6.76): 4.6 and 1.8 and 4.9
- SDR assay response (in words) ([2]; T7 Lig-C-HiBiT): strong SDR signal
- SDR assay statistics Ave RLU [2, 3]: 70.8 RLU
- SDR assay statistics S:B [2, 3]: 1.4
- SDR assay statistics Z’ [2, 3]: -0.186
- max resp ([2]; T7 Lig-C-HiBiT, maximum response): 215.2
